Measurements published in article PMC10895678 (Journal of Medicinal Chemistry, 2024).
Converted amounts (≈) assume the structure as drawn. “And” between values parts separate entries of the source, which are not always exact repeats. Equal values may be shown once. Read-outs that look alike come from different tables or passages of the source.

Key:
[1] = test system: M. bovis BCG; assay: microbe, parasite or virus in culture; format: cell-based, Mycobacterium bovis BCG
[2] = Mouse PK, combined (cassette) dosing of BGAz-001–005; format: in vivo, KM mice; design: AUMC(0-t) / VRT(0-t) / λz: unit not given here; conditions: for MRT last: read-out: MRT(0-t); for MRT inf: read-out: MRT(0-∞); for Vd/F: read-out: Vz/F
Source text: Methods for combined single dosing (BGAz001–005) and dosing of single compounds multiple times (BGAz004 and BGAz005) are described in detail in the Supporting Information (PK Data).
Report on PK Results of Combined Dosing with BGAz-001–005
1 Materials and instrument combined dosing
An MS2 Turnover type oscillator was purchased from IKA Work’s Guangzhou (China), and a 5415R ChromatographicanalyseswereconductedusinganAgilent1290InfinityIIhighperformanceliquidchromatography andAgilentTechnologies6470TripleQuadLC/MS.Propranolol(≥90%inpurity,internalstandard,IS)waspurchased fromtheSigmaChemicalCo.(China).Formicacid(HPLCgrade)andmethanol(HPLCgrade)werepurchasedfrom DIKMACo.(China).Allchemicalsandsolventswereanalyticalgrade.WaterwaspurifiedusingaMillipore(AK,USA) laboratoryultra-purewatersystem(0.2μmfilter).
KMmice,weighing25–35g(BeijingVitalRiverLaboratoryAnimalTechnologyCo.,Ltd.,China)wereutilisedforthe studies.The protocols were approved by the Animal Care and Use Committee, GIBH. Animals were maintained on standard animal chow and waterad libitum, in a climate-controlled room (23±1 °C 30–70% relative humidity, a minimumof tenexchangesof roomairperhouranda12hlight/darkcycle)foroneweekpriortoexperiments.
3 Pharmacokinetic studies
Compounds BGAz-001 ，BGAz-002 ，BGAz-003 ，BGAz-004 and BGAz-005 were dissolved mixed in a solution containing DMSO (2%),ethanol (4%), Cremophor EL (4%) and ddH2O (90%); Pharmacokinetic propertiesof KM (male) were determined following IV, PO and IP administration. Animals were randomly distributed into three experimentalgroups(n=4).ThePOgroupwasgivenmixedsolutionwith5mg/kgbygastricgavage.TheIVgroup was dosed with mixed solution 1mg/kg byinjection into the tail vein. The IP group was dosed with mixed solution 1mg/kg by intraperitoneal injection. After single administration, whole blood samples (100 μL) were obtained from the orbital venousplexus atthe followingtime pointsafter dosing:5, 15,30 minand 1,3, 5,8, 24hour (PO and IP groups) and at the following time points after dosing 2, 10, 30min and 1, 3, 5, 8,24 hour (IV group). Wholeblood samples were collected in heparinised tubes. The plasma fraction was immediately separated by centrifugation. The micewerehumanelyeuthanasiabycarbondioxide24hoursafterexperimentwithoutpain.
4 Plasma sample and brain sample analysis
4.1 Standard curve sample preparation
ThecompoundsweredissolvedinDMSO(2mg/mL)anddilutedwithtoseriesconcentration(methanol:H 2O,1:1,10 μL) and blank plasma (50 μL) were added to 1.5 mL tubes and vortexed for 3 min, then acetonitrile-containing internalstandard(150μL)wasaddedandvortexedforafurther5min,andsubsequentlyspuninacentrifugeat13000 […]
4.2 Plasma and preparation
Plasmasampleswerepreparedusingaproteinprecipitationmethod.Solution(10μL,methanolH 2O,1:1)andplasma samples(50μL)wereaddedto1.5mLtubesandvortexfor3min,thenacetonitrile-containinginternalstandard(150 μL)wasaddedandvortexfor5min,andsubsequentlyspuninacentrifugeat13000× gfor40minat4°C.
Aftercentrifugation,supernatant(100μL)wastransferto96wellplatesandanalysedbyLC-MS/MSusinganAgilent 1290InfinityIIHPLCandanAgilentTechnologies6470TripleQuadLC/MS.

[3] = IP 1 mg/kg, cassette, mean of animals
[4] = IV 1 mg/kg, cassette, mean of animals
[5] = PO 5 mg/kg, cassette, mean of animals
[6] = male, KM, mouse, plasma, IP 1 mg/kg, cassette
[7] = male, KM, mouse, plasma, IP 1 mg/kg, cassette, mean of animals
[8] = male, KM, mouse, plasma, IV 1 mg/kg, cassette
[9] = male, KM, mouse, plasma, IV 1 mg/kg, cassette, mean of animals
[10] = male, KM, mouse, plasma, PO 5 mg/kg, cassette
[11] = male, KM, mouse, plasma, PO 5 mg/kg, cassette, mean of animals

FC(F)(F)Oc1ccc(C2CC(CN3CCCC3)N2Cc2ccccc2OC(F)(F)F)cc1 (stereo not shown) [BGAz-002]
MIC99 ([1]; Mycobacterium tuberculosis variant bovis BCG, BCG, read-out: BCG MIC99): 15 µM (≈ 7.12 µg/mL) | MIC50 ([1]; Mycobacterium tuberculosis variant bovis BCG, BCG, read-out: MIC50 BCG): 14 µM (≈ 6.64 µg/mL) | MIC99 ([1]; Mycobacterium tuberculosis variant bovis BCG, BCG, read-out: MIC99 BCG): 15 µM (≈ 7.12 µg/mL) | increase in activity against M. bovis BCG compared to BGAz-001 ([1]; fold, from MIC99): approximately three- to four-fold increase | AUC(0-t) [2, 3]: 390.877 µg | AUC(0-∞) [2, 3]: 629.982 µg | AUMC(0-t) [2, 3]: 3917.162 **μg | AUMC(0-∞) [2, 3]: 17064.651 **μg | CLz/F [2, 3]: 1.79 L/kg | C_last [2, 3]: 8.556 µg | R_AUC(t/∞) [2, 3]: 67.725% | VRT(0-t) [2, 3]: 72.869 ^2 | VRT(0-∞) [2, 3]: 649.236 ^2 | λz [2, 3]: 0.051 1/ | AUC(0-∞) ([2]; IP 1 mg/kg, cassette, summary table): 629.982 µg·h | AUC(0-t) [2, 4]: 395.775 µg | AUC(0-∞) [2, 4]: 440.39 µg | AUMC(0-t) [2, 4]: 2604.325 **μg | AUMC(0-∞) [2, 4]: 4336.305 **μg | CLz/F [2, 4]: 2.306 L/kg | C_last [2, 4]: 3.185 µg | R_AUC(t/∞) [2, 4]: 89.5% | VRT(0-t) [2, 4]: 48.868 ^2 | VRT(0-∞) [2, 4]: 164.25 ^2 | Vz/F [2, 4]: 28.224 L/kg | λz [2, 4]: 0.099 1/ | AUC(0-∞) ([2]; IV 1 mg/kg, cassette, summary table): 440.39 µg·h | BA ([2]; PO 5 mg/kg vs IV 1 mg/kg, cassette): 57.59% | AUC(0-t) [2, 5]: 642.368 µg | AUC(0-∞) [2, 5]: 1268.031 µg | AUMC(0-t) [2, 5]: 6099.109 **μg | AUMC(0-∞) [2, 5]: 48726.538 **μg | CLz/F [2, 5]: 11.484 L/kg | C_last [2, 5]: 17.369 µg | R_AUC(t/∞) [2, 5]: 64% | VRT(0-t) [2, 5]: 48.138 ^2 | VRT(0-∞) [2, 5]: 1193.792 ^2 | λz [2, 5]: 0.025 1/ | AUC(0-∞) ([2]; PO 5 mg/kg, cassette, summary table): 1268.03 µg·h | Cmax ([2]; male, KM, mouse, plasma, ip, 1 mg/kg, IP 1 mg/kg, cassette, mean of animals, read-out: Cmax): 0.04 µg/mL | Tmax ([2]; male, KM, mouse, plasma, ip, 1 mg/kg, IP 1 mg/kg, cassette, mean of animals, read-out: Tmax): 0.167 h | Cmax ([2]; male, KM, mouse, plasma, ip, 1 mg/kg, IP 1 mg/kg, cassette, summary table, read-out: Cmax): 0.04 µg/mL | half-life ([2]; male, KM, mouse, plasma, ip, 1 mg/kg, IP 1 mg/kg, cassette, summary table, read-out: T1/2 (converted)): 16.1 h | Tmax ([2]; male, KM, mouse, plasma, ip, 1 mg/kg, IP 1 mg/kg, cassette, summary table, read-out: Tmax): 0.167 h | Cmax ([2]; male, KM, mouse, plasma, iv, 1 mg/kg, IV 1 mg/kg, cassette, mean of animals, read-out: Cmax): 0.189 µg/mL | Tmax ([2]; male, KM, mouse, plasma, iv, 1 mg/kg, IV 1 mg/kg, cassette, mean of animals, read-out: Tmax): 0.033 h | Cmax ([2]; male, KM, mouse, plasma, iv, 1 mg/kg, IV 1 mg/kg, cassette, summary table, read-out: Cmax): 0.189 µg/mL | half-life ([2]; male, KM, mouse, plasma, iv, 1 mg/kg, IV 1 mg/kg, cassette, summary table, read-out: T1/2 (converted)): 8.35 h | Tmax ([2]; male, KM, mouse, plasma, iv, 1 mg/kg, IV 1 mg/kg, cassette, summary table, read-out: Tmax): 0.033 h | AUC(0-inf) ([2]; male, KM, mouse, plasma, po, 5 mg/kg, 5 mg/kg PO, cassette dosing, read-out: AUC0-inf): 1.27 µg·h/mL | Cmax ([2]; male, KM, mouse, plasma, po, 5 mg/kg, 5 mg/kg PO, cassette dosing, read-out: Cmax (Mouse, P.O.)): 0.0539 µg/mL | half-life ([2]; male, KM, mouse, plasma, po, 5 mg/kg, 5 mg/kg PO, cassette dosing, read-out: T1/2 (Mouse, P.O.) (converted)): 24.9 h | Tmax ([2]; male, KM, mouse, plasma, po, 5 mg/kg, 5 mg/kg PO, cassette dosing, read-out: Tmax (Mouse, P.O.)): 1.87 h | Cmax ([2]; male, KM, mouse, plasma, po, 5 mg/kg, PO 5 mg/kg, cassette, mean of animals, read-out: Cmax): 0.0539 µg/mL | Tmax ([2]; male, KM, mouse, plasma, po, 5 mg/kg, PO 5 mg/kg, cassette, mean of animals, read-out: Tmax): 1.88 h | Cmax ([2]; male, KM, mouse, plasma, po, 5 mg/kg, PO 5 mg/kg, cassette, summary table, read-out: Cmax): 0.0539 µg/mL | half-life ([2]; male, KM, mouse, plasma, po, 5 mg/kg, PO 5 mg/kg, cassette, summary table, read-out: T1/2 (converted)): 24.9 h | Tmax ([2]; male, KM, mouse, plasma, po, 5 mg/kg, PO 5 mg/kg, cassette, summary table, read-out: Tmax): 1.88 h | concentration at 0.083 h [2, 6]: 37.4 ng/mL and 80 nM | concentration at 0.25 h [2, 6]: 80 nM and 38.8 ng/mL | concentration at 0.5 h [2, 6]: 70 nM and 32.6 ng/mL | concentration at 1 h [2, 6]: 50 nM and 25.8 ng/mL | concentration at 3 h [2, 6]: 50 nM and 24 ng/mL | concentration at 5 h [2, 6]: 40 nM and 17 ng/mL | concentration at 8 h [2, 6]: 30 nM and 15 ng/mL | concentration at 24 h [2, 6]: 30 nM and 12.4 ng/mL | MRT last [2, 7]: 10.1 h | MRT inf [2, 7]: 23.7 h | Vd/F [2, 7]: 36.8 L/kg | concentration at 0.033 h ([2]; male, KM, mouse, plasma, IV 1 mg/kg, cassette, 0.033 h): 189 ng/mL and 400 nM | concentration at 0.167 h ([2]; male, KM, mouse, plasma, IV 1 mg/kg, cassette, 0.167 h): 210 nM and 98.9 ng/mL | concentration at 0.5 h [2, 8]: 130 nM and 62.5 ng/mL | concentration at 1 h [2, 8]: 100 nM and 45.6 ng/mL | concentration at 3 h [2, 8]: 60 nM and 28.3 ng/mL | concentration at 5 h [2, 8]: 40 nM and 18.3 ng/mL | concentration at 8 h [2, 8]: 30 nM and 12.5 ng/mL | concentration at 24 h [2, 8]: 10 nM and 6.16 ng/mL | C0 [2, 9]: 0.222 µg/mL | MRT last [2, 9]: 6.46 h | MRT inf [2, 9]: 9.9 h | concentration at 0.083 h [2, 10]: 16.4 ng/mL and 30 nM | concentration at 0.25 h [2, 10]: 50 nM and 25.1 ng/mL | concentration at 0.5 h [2, 10]: 80 nM and 37.7 ng/mL | concentration at 1 h [2, 10]: 100 nM and 49.3 ng/mL | concentration at 3 h [2, 10]: 100 nM and 49.4 ng/mL | concentration at 5 h [2, 10]: 80 nM and 40.1 ng/mL | concentration at 8 h [2, 10]: 80 nM and 36.7 ng/mL | concentration at 24 h [2, 10]: 50 nM and 22.9 ng/mL | MRT last [2, 11]: 7.92 h | MRT inf [2, 11]: 27.5 h | Vd/F [2, 11]: 104 L/kg
